This is an account of results in patent US8664220B2, “Polycyclic compounds as lysophosphatidic acid receptor antagonists” (Amira Pharmaceuticals, Inc., priority 2009, dated 2014).

One assay has as its target T1, human LPA1 (Homo sapiens, UniProt Q92633).
T1 construct: the full-length cDNA for human LPA1 was obtained by PCR of the reverse transcription reaction; expressed in transfected cells
The experiment in a line: LPA1 calcium flux assay. Type of assay: cell-based. The following applies: human LPA1 expressing CHO cells, stimulated with 10 nM LPA; read-out: HLPA1 Ca Flux IC50. The essentials: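 CHO cells stably expressing human LPA1, serum-starved overnight and loaded with Calcium 4 dye in HBSS/20 mM Hepes/0.3% fatty-acid-free HSA, 1 h at 37 °C. Compounds pre-incubated 30 min at room temperature, then 10 nM LPA added; intracellular Ca2+ flux measured and IC50 from titration curves.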
In general terms: Calcium flux is commonly read through the fluorescence of an indicator in the cells.

The test system of assay [1] is A2058 human melanoma cells. The assay is described as follows: LPA1 chemotaxis assay. The format is cell-based. The following applies: LPA 100 nM, read-out: IC50, inhibition of LPA-driven chemotaxis. The method, then:
Chemotaxis of the A2058 human melanoma cells was measured using the Neuroprobe ChemoTx® System plates (8 μm pore size, 5.7 mm diameter sites). The filter sites were coated with 0.001% fibronectin (Sigma) in 20 mM Hepes, pH 7.4 and allowed to dry. A2058 cells were serum-starved for 24 hours, then harvested with Cell Stripper and resuspended in DMEM containing 0.1% fatty-acid-free bovine serum albumin (BSA) to a concentration of 1×10^6/ml. Cells were mixed with an equal volume of test compound (2×) in DMEM containing 0.1% fatty-acid-free BSA and incubated at 37° C. for 15 minutes. LPA (100 nM in DMEM containing 0.1% fatty-acid-free BSA) or vehicle was added to each well of the lower chamber and 50 μl of the cell suspension/test compound mix was applied to the upper portion of the ChemoTx plate. Plates were incubated at 37° C. for three hours and then the cells removed from the upper portion by rinsing with PBS and scraping. The filter was dried then stained with HEMA 3 Staining System (Fisher Scientific). The absorbance of the filter was read at 590 nm and IC50s were determined using Symyx Assay Explorer.

Assay [2] concerns bleomycin-induced lung fibrosis. The assay is described as follows: Bleomycin-induced lung fibrosis model in mice. The following applies: acute setting (3 day). The format is in vivo, mouse. The text has this:
Bleomycin-induced Lung Fibrosis Model in Mice Female CD-1 mice (Harlan, 25-30 g) are housed 4 per cage, given free access to food and water and allowed to acclimate for at least 7 days prior to test initiation. After the habituation phase, mice are lightly anesthetized with isoflurane (5% in 100% O2) and administered with bleomycin sulfate (0.01-5 U/kg, Henry Schein) via intratracheal instillation (Cuzzocrea S et al. Am J Physiol Lung Cell Mol Physiol. 2007 May; 292(5):[…]-104. Epub 2007 Jan. 12.). Mice are returned to their cages and monitored daily for the duration of the experiment. Test compound or vehicle is delivered po, ip or sc daily. The route and frequency of dosing is based on previously determined pharmacokinetic properties. […] BALF is analyzed for concentrations of inflammatory, pro-fibrotic and tissue injury biomarkers including transforming growth factor β1, hyaluronic acid, tissue inhibitor of metalloproteinase-1, matrix matelloproteinase-7, connective tissue growth factor and lactate dehydrogenase activity, using commercially available ELISA. […] Total cell counts are then obtained using a Hemavet hematology system (Drew Scientific, Wayne, Pa.) and differential cells counts are determined using Shandon cytospin (Thermo Scientific, Waltham, Mass.). […] The data are plotted using Graphpad prism and statistical differences between groups determined.

Assay [3] concerns human foetal lung fibroblasts. The following applies: cited from earlier work.
In assay [4] the test system is renal fibrosis, unilateral ureteral obstruction (UUO). Particulars: UUO mice; cited from earlier work.
Assay [5] deals with mouse epithelial renal cell line, MCT. The following applies: co-treatment with LPA, MCT cells; cited from earlier work.
Assay [6] has as its system pancreatic cancer cell lines. The following applies: cited from earlier work.

T1 sequence (Q92633 whole entry): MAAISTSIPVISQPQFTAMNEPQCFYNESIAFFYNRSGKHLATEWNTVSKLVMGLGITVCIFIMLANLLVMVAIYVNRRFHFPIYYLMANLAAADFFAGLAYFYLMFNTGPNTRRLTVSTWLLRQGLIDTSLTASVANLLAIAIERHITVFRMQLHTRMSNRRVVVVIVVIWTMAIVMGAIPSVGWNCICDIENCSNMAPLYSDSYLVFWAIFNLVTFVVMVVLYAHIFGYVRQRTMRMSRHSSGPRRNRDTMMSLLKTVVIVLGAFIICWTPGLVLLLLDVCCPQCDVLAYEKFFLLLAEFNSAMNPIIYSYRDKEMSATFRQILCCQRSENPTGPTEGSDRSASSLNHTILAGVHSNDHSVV

Take `Cc1noc(-c2ccc(-c3ccc(C4(C(=O)O)CC4)cc3)cc2)c1C(O)c1cn(Cc2ccccc2)nn1` (single isomer, unassigned) [Compound 1-41, 1-(4′-{4-[(1-Benzyl-1H-[1,2,3]triazol-4-yl)-hydroxy-methyl]-3-methyl-isoxazol-5-yl}-biphenyl-4-yl)-cyclopropanecarboxylic acid]: the half-maximal inhibitory concentration (IC50) (usually the point on the concentration scale where inhibition reaches its midpoint) on human LPA1 is less than 300 nM. Moreover, in assay [1], the 50% inhibitory concentration (IC50) was less than 100 nM. Also, in assay [2], the “collagen concentration in broncheoalveolar lavage fluid (BALF)” value is on record as “significantly reduced” and the “total protein concentration in broncheoalveolar lavage fluid (BALF)” value was “significantly reduced”. As for `Cc1noc(-c2ccc(-c3ccc(C4(C(=O)O)CC4)cc3)cc2)c1C(O)c1cn(Cc2ccccc2)nn1` (stereo not drawn) [Compound 1-25, 1-(4′-{4-[(1-Benzyl-1H-[1,2,3]triazol-4-yl)-hydroxy-methyl]-3-methyl-isoxazol-5-yl}-biphenyl-4-yl)-cyclopropanecarboxylic acid], the IC50 is less than 300 nM at human LPA1 and less than 100 nM in assay [1].

For the compound `Cc1noc(-c2ccc(-c3ccc(C4(C(=O)O)CC4)cc3)cc2)c1Nc1cccc(-c2cccc(F)c2Cl)n1` [Compound 1-153, 1-(4′-{4-[6-(2-Chloro-3-fluoro-phenyl)-pyridin-2-ylamino]-3-methyl-isoxazol-5-yl}-biphenyl-4-yl)-cyclopropanecarboxylic acid], at human LPA1, the IC50 was less than 300 nM. For `Cc1noc(-c2ccc(-c3ccc(C4(C(=O)O)CC4)cc3)cc2)c1Nc1cccc(OCC2CC2)n1` [Compound 1-154, 1-{4′-[4-(6-Cyclopropylmethoxy-pyridin-2-ylamino)-3-methyl-isoxazol-5-yl]-biphenyl-4-yl}-cyclopropanecarboxylic acid], the IC50 at human LPA1 is less than 300 nM. On the same count and under the same terms, to `Cc1noc(-c2ccc(-c3ccc(C4(C(=O)O)CC4)cc3)cc2)c1Nc1cncc(-c2cccc(F)c2Cl)c1` [Compound 1-155, 1-(4′-{4-[5-(2-Chloro-3-fluoro-phenyl)-pyridin-3-ylamino]-3-methyl-isoxazol-5-yl}-biphenyl-4-yl)-cyclopropanecarboxylic acid] belongs less than 300 nM; to `Cc1noc(-c2ccc(-c3ccc(C4(C(=O)O)CC4)cc3)cc2)c1Nc1cccc(-c2cccc(F)c2C)n1` [Compound 1-156, 1-(4′-{4-[6-(3-Fluoro-2-methyl-phenyl)-pyridin-2-ylamino]-3-methyl-isoxazol-5-yl}-biphenyl-4-yl)-cyclopropanecarboxylic acid], less than 300 nM; to `Cc1noc(-c2ccc(-c3ccc(C4(C(=O)O)CC4)cc3)cc2)c1Nc1cccc(-c2cccc(C(F)(F)F)c2Cl)n1` [Compound 1-157, 1-(4′-{4-[6-(2-Chloro-3-trifluoromethyl-phenyl)-pyridin-2-ylamino]-3-methyl-isoxazol-5-yl}-biphenyl-4-yl)-cyclopropanecarboxylic acid], less than 300 nM. `Cc1noc(-c2ccc(-c3ccc(C4(C(=O)O)CC4)cc3)cc2)c1Nc1cccc(-c2cccc(Cl)c2Cl)n1` [Compound 1-158, 1-(4′-{4-[6-(2,3-Dichloro-phenyl)-pyridin-2-ylamino]-3-methyl-isoxazol-5-yl}-biphenyl-4-yl)-cyclopropanecarboxylic acid]: at human LPA1, the half-inhibitory concentration (IC50) was less than 300 nM. As for `COc1c(F)cccc1-c1cccc(Nc2c(C)noc2-c2ccc(-c3ccc(C4(C(=O)O)CC4)cc3)cc2)n1` [Compound 1-159, 1-(4′-{4-[6-(3-Fluoro-2-methoxy-phenyl)-pyridin-2-ylamino]-3-methyl-isoxazol-5-yl}-biphenyl-4-yl)-cyclopropanecarboxylic acid], on human LPA1, the IC50 was less than 300 nM. On to `Cc1noc(-c2ccc(-c3ccc(C4(C(=O)O)CC4)cc3)cc2)c1Nc1cncc(-c2cccc(Cl)c2)c1` [Compound 1-160, 1-(4′-{4-[5-(3-Chloro-phenyl)-pyridin-3-ylamino]-3-methyl-isoxazol-5-yl}-biphenyl-4-yl)-cyclopropanecarboxylic acid], for which, on human LPA1, the IC50 was less than 300 nM. The same measure, in the same setting: to `Cc1noc(-c2ccc(-c3ccc(C4(C(=O)O)CC4)cc3)cc2)c1Nc1cncc(-c2cc(F)ccc2F)c1` [Compound 1-161, 1-(4′-{4-[5-(2,5-Difluoro-phenyl)-pyridin-3-ylamino]-3-methyl-isoxazol-5-yl}-biphenyl-4-yl)-cyclopropanecarboxylic acid] belongs less than 300 nM; to `Cc1noc(-c2ccc(-c3ccc(C4(C(=O)O)CC4)cc3)cc2)c1Nc1cccc(-c2cccc(Cl)c2)n1` [Compound 1-162, 1-(4′-{4-[6-(3-Chloro-phenyl)-pyridin-2-ylamino]-3-methyl-isoxazol-5-yl}-biphenyl-4-yl)-cyclopropanecarboxylic acid], less than 300 nM; to `CCc1noc(-c2ccc(-c3ccc(C4(C(=O)O)CC4)cc3)cc2)c1Nc1cccc(-c2ccccc2)n1` [Compound 2-1, 1-{4′-[3-Ethyl-4-(6-phenyl-pyridin-2-ylamino)-isoxazol-5-yl]-biphenyl-4-yl}-cyclopropanecarboxylic acid], less than 300 nM. On the same count and under the same terms, the figure for `CCc1noc(-c2ccc(-c3ccc(C4(C(=O)O)CC4)cc3)cc2)c1Nc1nnc(-c2ccccc2)o1` [Compound 2-2, 1-{4′-[3-Ethyl-4-(5-phenyl-[1,3,4]oxadiazol-2-ylamino)-isoxazol-5-yl]-biphenyl-4-yl}-cyclopropanecarboxylic acid] is less than 300 nM; for `Cc1noc(-c2ccc(-c3ccc(C4(C(=O)NS(C)(=O)=O)CC4)cc3)cc2)c1C(O)c1cn(Cc2cccc(C(F)(F)F)c2)nn1` (stereo not drawn) [Compound 3-3, N-{1-[4′-(4-{Hydroxy-[1-(3-trifluoromethyl-benzyl)-1H-[1,2,3]triazol-4-yl]-methyl}-3-methyl-isoxazol-5-yl)-biphenyl-4-yl]-cyclopropanecarbonyl}-methanesulfonamide] it is 1000 to 50000 nM. Turning to `Cc1noc(-c2ccc(-c3ccc(C4(C(=O)NS(C)(=O)=O)CC4)cc3)cc2)c1Nc1nnc(-c2ccccc2)o1` [Compound 3-4, N-(1-{4′-[3-Methyl-4-(5-phenyl-[1,3,4]oxadiazol-2-ylamino)-isoxazol-5-yl]-biphenyl-4-yl}-cyclopropanecarbonyl)-methanesulfonamide], at human LPA1, the IC50 is less than 300 nM. In the case of `Cc1noc(-c2ccc(-c3ccc(C4(C(=O)NS(C)(=O)=O)CC4)cc3)cc2)c1Nc1cccc(Cc2ccccc2)n1` [Compound 3-5, N-(1-{4′-[4-(6-Benzyl-pyridin-2-ylamino)-3-methyl-isoxazol-5-yl]-biphenyl-4-yl}-cyclopropanecarbonyl)-methanesulfonamide], on human LPA1, the IC50 was less than 300 nM. Regarding `Cc1noc(-c2ccc(-c3ccc(C4(C(=O)NS(C)(=O)=O)CC4)cc3)cc2)c1Nc1cccc(-c2ccccc2)n1` [Compound 3-6, N-(1-{4′-[3-Methyl-4-(6-phenyl-pyridin-2-ylamino)-isoxazol-5-yl]-biphenyl-4-yl}-cyclopropanecarbonyl)-methanesulfonamide], the IC50 on human LPA1 was less than 300 nM. With `Cc1noc(-c2ccc(CSCCC(=O)O)cc2)c1NC(=O)OC(C)c1ccccc1Cl` (stereo not drawn) [Ki16425], the “chemotaxis of human foetal lung fibroblasts induced by BAL from IPF patients” value in assay [3] is listed as “blocked”. Besides, the “development of renal fibrosis” value in assay [4] is given as “closely resembled the LPA1 (−/−) mice”. Also, the “LPA-induced increase in expression of the profibrotic cytokine CTGF” value in assay [5] was “almost completely suppressed”. Besides, the “LPA-induced and ascites-induced invasion activity” value in assay [6] (highly peritoneal metastatic pancreatic cancer cell line) is “blocked”. For the same compound, the “in vitro migration in response to LPA and peritoneal fluid (ascites) from pancreatic cancer patients” value in assay [6] (pancreatic cancer cell lines) is listed as “effectively blocked”.
